Where two headings read alike, the source gives them in different places.
Tests used:
SH-SY5Y cells = assay: Dose-response screening for non-toxic concentration, MTT reduction; format: cell-based; settings: dose-response screening from 0.2 μM to 5 μM, 25 h
Experimental: The neuroprotective effect of TAC-PhBTA conjugates was evaluated using SH-SY5Y cells treated with Aβ1–42 peptides or ascorbate/iron. For each compound, a dose-response curve was performed to select a non-toxic concentration in order to analyze its neuroprotective effect (Figure 3).
SH-SY5Y human neuroblastoma cell line (ATCC-CRL-2266) grown in Dulbecco’s modified Eagle’s medium (DMEM) obtained from Gibco-Invitrogen (Life Technologies Ltd., Liverpool, UK) with 10% heat inactivated fetal calf serum, containing 50 U/mL penicillin, and 50 μg/mL streptomycin, under a humidified atmosphere of 95% air-5% CO2 at 37 °C. Cells were plated at 0.12 × 10^6 cells/mL for cell viability assay. […]. As a result we selected a 2.5 μM final concentration for compound 16; 0.5 μM final concentration for compound 17; 0.2 μM final concentration for compounds 14 and 15; and a 1 μM final concentration for compounds 19 and 18. […] The compounds were added to the cell media 1 h before the incubation with Aβ1–42 or ferrous sulfate/L-ascorbic acid. Aβ1–42 or ferrous sulfate/L-ascorbic acid where incubated alone or with the compound for an additional 24 h. Aβ1–42 was prepared as 276.9 μM stock in sterile water and added to the medium at 1 μM final concentration. Ferrous sulfate was freshly prepared as 0.36 M stock in water and added to the medium at 500 μM final concentration. L-Ascorbic Acid was freshly prepared as 80 mM stock in water and added to the medium at 5 mM final concentration. Aβ1–42 was purchased from Bachem (Torrance, CA, USA) and ferrous sulfate and L-ascorbic acid from Sigma Chemical Co (St. Louis, MO, USA).
Cell viability was determined by a MTT (3-(4,5-dimethylthiazol-2-yl)-2,5-diphenyltetrazolium bromide) reduction test. In viable cells, the enzyme succinate dehydrogenase metabolizes MTT into formazan that absorbs light at 570 nm. Following the cell treatment protocol the medium was aspirated and 0.5 mL MTT (0.5 mg/mL) was added to each well. The plate was then incubated at 37 °C for 1 h 30 min protected from light. At the end of the incubation period the formazan precipitates were solubilized with 0.5 mL of acidic isopropanol (0.04 M HCl/isopropanol). The absorbance was measured at 570 nm. Cell reduction ability was expressed as a percentage of untreated control cells.

AChE from electric eel = molecular target: T1, AChE from electric eel (Electrophorus electricus, UniProt O42275); assay: biochemical; settings: means of two experiments, read-out: Inhibition of AChE (IC50)
T1 construct: commercially available enzyme AChE 500 U (extracted from electrophorus electricus); purchased type VI-S; host or cells: extracted from electric eel
Experimental: The analytical grade reagents were purchased from Sigma-Aldrich (St. Louis, MO, USA) and Acros (Thermo Fisher Scientific, Geel, Belgium) and were used without any further purification. The organic solvents were dried and distilled according to standard methods described in literature. […] The Proton and Carbon-13 NMR were recorded either on Bruker AVANCE III-300 (300 MHz and 75.5 MHz) or Bruker AVANCE III-400 (400 MHz and 100.5 MHz) NMR spectrometers (Billerica, MA, USA) at 25 °C using peaks of solvents as internal standard. The chemical shift values of protons or carbons were measured on a δ scale and the coupling constant values (J) were determined in Hertz. In the NMR representation, abbreviations are mentioned as: singlet represented by s, doublet represented by d, triplet represented by t, multiplet represented by m, double doublet represented by dd, and broad singlet represented by brs. The Leica Galen III hot stage apparatus (Leica Microsystems, Wetzlar, Germany) was used for measuring the melting points of compounds. […] The AChE inhibitory activity was measured in a 1 cm path length quartz cell through a Perkin Elmer Lambda 35 spectrophotometer equipped with a temperature programmer PTP1+1 Peltier System (T = 25.0 ± 0.1 °C) (Waltham, MA, USA). Electrospray ionization-mass (ESI-MS) measurements were carried out on a LCQ Fleet mass spectrometer (Thermo Scientific, S. Jose, CA, USA) operated in the ESI positive and negative ion modes.
Modified Ellman’s method was used as described previously for the determination of AChE activity. The AChE stock solution was prepared by dissolving commercially available enzyme AChE 500 U (extracted from electrophorus electricus) in 10 mL of TRIS buffer (50 mM, pH 8). HEPES buffer was used for the dilution of the enzyme to give the final AChE concentration. The assay solution consisted of 374 μL of 4-(2-hydroxyethyl)-1-piperazineethanesulfonic acid (Hepes) buffer (50 mM, pH 8.0), 476 μL of 3 mM bis(3-carboxy-4-nitrophenyl)disulfide (DTNB), 25 μL of AChE (type VI-S, from electric eel) stock solution, a variable volume (10–50 μL) of the compound’s stock solution (1 mg/mL of MeOH), and the necessary amount of methanol to attain the same volume of sample mixture (0.925 mL) in a 1 mL cuvette. Samples were left to react for 15 min and then the reaction was monitored at wavelength of 405 nm for 5 min, after adding 75 μL of 16 mM acetylthiocholine iodide (AChI) solution. Assays were run with a blank containing all the components except AChE, which was replaced by HEPES buffer. The velocities of the reaction were calculated as well as the enzyme activity. A control reaction was carried out using the sample solvent (methanol) in the absence of any tested compound, and it was considered as 100% activity. […] The inhibition curves were obtained by plotting the percentage of enzymatic inhibition versus inhibitor concentration and a calibration curve was obtained from which the linear regression parameters were calculated.

Aβ1–42 self-aggregation = molecular target: T2, Aβ1–42 self-aggregation (Homo sapiens, UniProt P05067); assay: Aβ1–42 self-aggregation inhibition, thioflavin T fluorescence assay; format: biochemical; settings: for inhibition at 40 µM: read-out: Inhibition of Aβ-self-aggregation (%)
T2 construct: Commercially available Aβ1-42 peptide was obtained from Aldrich; purchased Aldrich
Experimental: […]. Since the compounds of this series presented some solubility problems in methanol, the assays were performed with ligands at concentrations of 40 µM, i.e., half of the concentration usually used (80 µM) in these assays. […]. […] So, it appears that introduction of a chloro substituent in TAC and/or a hydroxyl group in the carbon linker are not well suited for the interaction with β-sheet secondary structure of Aβ aggregates. […].
Commercially available Aβ1-42 peptide was obtained from Aldrich and stored at −20 °C. It was treated with 1,1,1,3,3,3-hexafluoropropan-2-ol (HFIP) to avoid self-aggregation and reserved. HFIP pre-treated Aβ1–42 samples were re-dissolved in CH3CN/Na2CO3 (300 µM)/NaOH (250 µM) (48.3:48.3:4.3, v/v/v) solvent mixture in order to have a stable stock solution; this solution (500 µM) was further diluted in phosphate buffer (0.215 M, pH 8.0) to obtain 40 µM solution. The ligand, which was previously dissolved in methanol, was further diluted in phosphate buffer to a final concentration of 40 µM. Aβ1–42 aggregation was determined by measuring the fluorescence emission of Thioflavin T dye, with a Cary Eclipse Varian fluorimeter (Molecular Devices, San José, CA, USA).
After incubation for 24 h at 37 °C, without stirring, the samples were added to a 96-well plate (BD Falcon) with 180 µL of 5 µM ThT in 50 mM glycine-NaOH (pH 8.5) buffer. Blank samples were prepared for each concentration in a similar way, devoid of peptide. As for the control, a sample of the peptide was incubated under identical conditions but without the inhibitor. After 5-min incubation with the dye, the ThT fluorescence was measured at the following wavelengths: 446 nm (excitation) and 486 nm (emission). The percent inhibition of the self-induced aggregation due to the presence of the test compound was calculated by Equation (2), in which IFi and IF0 corresponded to the fluorescence intensities, in the presence and the absence of the test compound, minus the fluorescence intensities due to the respective blanks. I% = 100 − (IFi/IF0 × 100)(2)
The reported values were obtained as the mean ± S.E.M. of two different experiments.

[1] = self-mediated Aβ42 aggregation, ThT fluorescence, CL = 40 μM, means of two experiments

T1 sequence (O42275 24-633): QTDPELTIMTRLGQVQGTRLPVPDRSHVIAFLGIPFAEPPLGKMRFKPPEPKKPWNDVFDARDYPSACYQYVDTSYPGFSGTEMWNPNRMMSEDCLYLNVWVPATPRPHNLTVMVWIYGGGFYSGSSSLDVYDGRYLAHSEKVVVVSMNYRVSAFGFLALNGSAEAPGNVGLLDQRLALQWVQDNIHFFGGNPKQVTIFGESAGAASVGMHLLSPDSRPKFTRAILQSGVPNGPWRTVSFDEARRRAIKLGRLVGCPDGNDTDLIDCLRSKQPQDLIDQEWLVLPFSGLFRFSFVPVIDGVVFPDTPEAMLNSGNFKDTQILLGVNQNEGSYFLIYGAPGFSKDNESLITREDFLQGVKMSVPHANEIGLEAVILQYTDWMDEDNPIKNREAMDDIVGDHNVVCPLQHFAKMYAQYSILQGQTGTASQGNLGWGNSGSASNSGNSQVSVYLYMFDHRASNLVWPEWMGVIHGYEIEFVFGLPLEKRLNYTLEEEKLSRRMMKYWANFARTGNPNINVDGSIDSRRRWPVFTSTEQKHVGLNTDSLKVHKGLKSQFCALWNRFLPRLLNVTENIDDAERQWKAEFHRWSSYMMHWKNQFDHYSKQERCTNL
T2 sequence (P05067 672-713 limits assumed): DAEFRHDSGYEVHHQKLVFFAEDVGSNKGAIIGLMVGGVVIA

Q: For `COc1cc(-c2nc3ccccc3s2)ccc1OCC(=O)NCCCNc1c2c(nc3cc(Cl)ccc13)CCCC2` [compound 17, 2-(4-(Benzo[d]thiazol-2-yl)-2-methoxyphenoxy)-N-(3-((6-chloro-1,2,3,4-tetrahydroacridin-9-yl)amino)propyl)acetamide], which “Highest non-toxic concentration selected” value (SH-SY5Y cells) is on record?
A: 0.5 µM

Q: What about the IC50 (AChE from electric eel) of the same compound?
A: 130 nM

Q: What about the inhibition at 40 µM (Aβ1–42 self-aggregation; [1]) of the same compound?
A: 32.5%

Q: Which inhibition at 80 µM (Aβ1–42 self-aggregation; read-out: Inhibition of Aβ self-aggregation (%)) does the source give for `Nc1c2c(nc3ccccc13)CCCC2` [TAC, tacrine] here?
A: 11%

Q: What about the inhibition at 40 µM (Aβ1–42 self-aggregation) of the same compound?
A: 11%

Q: `COc1cc(-c2nc3ccccc3s2)ccc1OCC(=O)NCCNc1c2c(nc3ccccc13)CCCC2` [compound 14, 2-(4-(Benzo[d]thiazol-2-yl)-2-methoxyphenoxy)-N-(2-((1,2,3,4-tetrahydroacridin-9-yl)amino)ethyl)acetamide] was tested. Which “Highest non-toxic concentration selected” value (SH-SY5Y cells) did it give?
A: 0.2 µM

Q: What about the IC50 (AChE from electric eel) of the same compound?
A: 110 nM

Q: What about the inhibition at 40 µM (Aβ1–42 self-aggregation; [1]) of the same compound?
A: 44.6%

Q: What does the source list for `COc1cc(-c2nc3ccccc3s2)ccc1OCC(=O)NCC(O)CNc1c2c(nc3ccccc13)CCCC2` (stereo not drawn) [compound 18, 2-(4-(Benzo[d]thiazol-2-yl)-2-methoxyphenoxy)-N-(2-hydroxy-3-((1,2,3,4-tetrahydroacridin-9-yl)amino)propyl)acetamide]?
A: Highest non-toxic concentration selected (SH-SY5Y cells): 1 µM; IC50 (AChE from electric eel): 270 nM; Inhibition of Aβ-self-aggregation (%) (Aβ1–42 self-aggregation; self-mediated Aβ42 aggregation, ThT fluorescence, CL = 40 μM, means of two experiments, 40 µM): 31.1%; inhibition at 40 µM (Aβ1–42 self-aggregation; [1]): ~31%

— paper PMC6385087, “New Multitarget Hybrids Bearing Tacrine and Phenylbenzothiazole Motifs as Potential Drug Candidates for Alzheimer’s Disease” (Molecules, 2019)
